Experimental data as given in PMC7870075, “Physicochemical properties and formulation development of a novel compound inhibiting Staphylococcus aureus biofilm formation” (PLoS ONE, 2021).
≈ marks a conversion by molar mass, not a printed value.

Test: Solubility in water containing sodium dodecyl sulfate (SDS)
Assay type: physicochemical
Settings: aqueous with cosolvent or surfactant or cyclodextrin, thermodynamic from solid, 37°C; for solubility at 24 h / solubility at 48 h: 200 rpm; for solubility: mean of 24 and 48 h
Procedure: The concentration of CCG-211790 in deionized water or aqueous solutions was determined using an Agilent series 1100 HPLC system (Agilent Technologies, Santa Clara, CA, USA) equipped with diode array detector. Sample separation was carried out with a Kinetex C18 column (75 mm × 3 mm, particle size 2.6 μm, Phenomenex Inc., Torrance, CA, USA). The mobile phase of acetonitrile-water (50:50, v/v) was used for chromatographic separation. The flow rate was set to 0.5 mL/min, column temperature to 35°C. The absorption was measured at wavelength 255 nm. The injection volume was 30 μL. The retention time of CCG-211790 was 4.9 min. The method detection limit was 0.02 mg/L. Calibration curves were established giving a correlation coefficient >0.9900. The procedure to determine solubility in water with presence of SDS is based on the Paddle Method as described in the U.S. Pharmacopeia <711> on the in vitro dissolution tests with minor revision. To determine the saturation solubility in water containing SDS, CCG-211790 bulk powder was added in excess (around 5 mg of CCG-211790) to 10 mL of SDS solutions with various concentrations (0.5, 1.0 or 2.0% w/v). After incubation for 24–48 h in a shaking incubator at 37°C and 200 rpm to reach saturation status, aliquot (2 mL) of the incubated sample was filtered through a 0.22 μm Millipore filter (Millipore Corp., Billerica, MA, USA). Solutions passing through the filter were collected (0.5 mL) and were diluted 2-fold with acetonitrile. CCG-211790 concentration in SDS solutions was determined by HPLC analysis.

[1] = 0.5% (w/v) SDS solution, 0.5% (w/v) SDS
[2] = 1.0% (w/v) SDS solution, 1.0% (w/v) SDS
[3] = 2.0% (w/v) SDS solution, 2.0% (w/v) SDS

solubility at 24 h [1]: 32.9 µg/mL (≈ 85.6 µM)
solubility at 48 h [1]: 26.8 µg/mL (≈ 69.7 µM)
solubility [1]: 29.9 ± 4.3 µg/mL (≈ 77.8 µM)
solubility at 24 h [2]: 68.5 µg/mL (≈ 178 µM)
solubility at 48 h [2]: 63.8 µg/mL (≈ 166 µM)
solubility [2]: 66.1 ± 3.3 µg/mL (≈ 172 µM)
solubility at 24 h [3]: 161 µg/mL (≈ 420 µM)
solubility at 48 h [3]: 150 µg/mL (≈ 389 µM)
solubility [3]: 156 ± 8.3 µg/mL (≈ 405 µM)
SMILES: COc1ccc2c(c1)-c1nc(SCC(F)(F)F)n(C)c(=O)c1C(C)(C)C2 [CCG-211790, 9-Methoxy-3,5,5-trimethyl-2-((2,2,2-trifluoroethyl)thio)-5,6-dihydrobenzo[h]quinazolin-4(3H)-one]
